We go through 47 compounds from patent publication US20120040951A1, “HETEROARYL COMPOUNDS USEFUL AS RAF KINASE INHIBITORS” (priority 2008, published 2012).

The subject of the experiment is phospho-ERK in melanoma derived WM-266-4 cells. The experiment in a line: Mechanistic cellular assay for Raf kinase activity (phospho-ERK, Bio-Plex). The format is cell-based. Particulars: Homo sapiens, treated 1-2 hr at 37° C., serum free medium, read-out: pERK EC50. The source says:
(2) Mechanistic Cellular Assay for Raf Kinase Activity
The following method was utilized for quantifying the amount of phospho-ERK in melanoma derived WM-266-4 cells (one allele each of wild type BRaf and mutant BRaf (V600D) as an indicator of Raf kinase activity in cells treated with various kinase inhibitors.
(1) Detached adhered WM-266-4 cells from flask using 0.25% Trypsin. Resuspended cells in growth media (90% RPMI 1640, 10% FBS) and determine cell density.
(2) Seeded cells @ 10,000 cells/well in 96-well (flat bottom) tissue culture plates (36,000 cells/cm^2). Added growth media to a final volume of 200 uL/well and incubated overnight at 37° C.
(1) Prepared compound dilutions (1000× in DMSO) as follows. Starting with a stock of 5 mM compound in DMSO, diluted serially 3-fold in DMSO for a total of eight concentrations (5 mM, 1.67 mM, 0.556 mM, 0.185 mM, 0.062 mM, 0.021 mM, 0.007 mM, 0.002 mM).
(2) Prepared compound-containing media by adding 1 mL treatment media (100% RPMI 1640 without FBS) to 1 μL of compound dilution (from step 3).
(3) Removed plates (from step 2) from incubator. Aspirated media and replace with 150 μL compound-containing media. Incubate for 1-2 hr at 37° C.
(4) Removed plates (from step 5) from incubator and treated each as follows: aspirated compound-containing media and replaced with 300 μL ice-cold 1×PBS, aspirated PBS and replaced with 45 μL lysis buffer (Biorad Bio-Plex lysis buffer containing 0.4% v/v lysis buff. Factor 1, 0.2% v/v lysis buff. Factor 2, and PMSF to 2 mM final concentration), and then placed plate on ice until all plates were treated.
(5) After all plates were processed (step 6), placed plates on an orbital shaker and shook at room temperature for at least 15 min.
(6) Finally, removed plates from shaker, and transfered 40 μL/well of lysate from each to new corresponding 96-well V-bottom plates. At this point, samples may be frozen and stored @−80 C.°.
(1) Thaw (if necessary) plates (from step 8) and added 40 μL of Phospho-Protein Assay Buffer to each 40 μL lysate for a 1:1 dilution.
(2) Prepared phospho-ERK1,2 Bioplex beads by diluting 1:50 with Bioplex Wash Buffer (mixing 49 μL Wash Buffer with 1 μL of phospho-ERK1,2 Bioplex beads for each sample to be analyzed). Protected from light by wrapping tube in aluminum foil and kept at room temperature.
(3) Prepared Filter Plate by adding 100 μL/well Bioplex Wash Buffer and removed by vacuum filtration.
(4) Add 50 μL of bead solution (from step 10) to each well of a prepared Filter Plate (from step 11) and vacuum filter. Wash/filter 2× with 100 μL/well Wash Buffer.
(5) Added 50 μL of each lysate to appropriate well of the Filter Plate (from step 12). For this and all subsequent plate incubation steps, placed plate on an inverted plate cover (reduces background), and wrapped in aluminum foil (to protect from light). Shook overnight at room temperature. Included positive (control lysate) and negative (lysis buffer) controls.
(1) Prepared detection antibody (phospho-ERK1,2 Ab) by diluting 1:25 with Detection Antibody Dilution Buffer Buffer (mixing 24 μL Detection Antibody Dilution Buffer with 1 μL of phospho-ERK1,2 Ab for each sample to be analyzed).
(2) Removed plate (from step 13) from shaker and vacuum filter. Washed/filter plate 3× with 100 μL/well Wash Buffer. Added 25 μL of diluted antibody to each well. Incubated on shaker at RT for 30-45 min.
(3) Prepared streptavidin-PE by diluting 1:100 with Wash Buffer (mixing 49.5 μL Wash Buffer with 0.5 μL of 100× streptavidin-PE for each sample to be analyzed). Protected from light.
(4) Removed plate (from step 15) from shaker and vacuum filter. Washed/filter plate 3× with 100 μL/well Wash Buffer. Add 50 μL of diluted streptavidin-PE solution (from step 16) to each sample well. Incubated on shaker for 10-20 min.
(5) Removed plate from shaker and vacuum filter. Wash/filter plate 3× with 100 μL/well Bead Resuspension Buffer. After last wash resuspended beads in 125 μL Bead Resuspension Buffer. […]

For orientation: EC50 means the midpoint of the concentration-response curve. As to `CCN1CC(n2cnc3cnc(C(=O)NC(C)c4cnc(Nc5ccc(Cl)c(C(F)(F)F)c5)cn4)cc32)C1` (centres unmarked) [Example 235], the EC50 fell in the range of 100 to 1000 nM.
The value for `C[C@@H](NC(=O)c1cc2cn(C)nc2cn1)c1cnc(Nc2ccc(C(F)(F)F)cc2)s1` [Example 205] was at most 100 nM; that for `Cc1c(C(=O)N[C@H](C)c2ncc(C(=O)Nc3cc(C(F)(F)F)c(Cl)cn3)s2)cnn1-c1ccccc1` [Example 114] was 1000 to 10000 nM.
Turning to `CC(NC(=O)c1cc2c(cn1)ncn2C)c1cnc(Nc2cccc(Cl)c2)s1` (centres unmarked) [Example 248], the EC50 was in the range of 100 to 1000 nM.
The value for `CC(NC(=O)c1cnn2cc(-c3cc(F)nc(F)c3)ccc12)c1nc(C(=O)Nc2cc(C(F)(F)F)c(Cl)cn2)cs1` (centres unmarked) [Example 325] was 100 to 1000 nM; that for `CC(NC(=O)c1cn2c(NC(C)(C)CC(C)(C)C)cnc2cn1)c1ncc(Nc2ccc(C(F)(F)F)cc2)s1` (centres unmarked) [Example 301] was 1000 to 10000 nM.
On to `C[C@@H](NC(=O)c1cnn(-c2ccncc2)c1)c1ncc(C(=O)Nc2cc(C(F)(F)F)c(Cl)cn2)s1` [Example 120], for which the EC50 was 100 to 1000 nM.
The same measure for `C[C@@H](NC(=O)c1cnc2n1CCCCC2)c1ncc(C(=O)Nc2cc(C(F)(F)F)c(Cl)cn2)s1` [Example 168]: at most 100 nM; for `CC(NC(=O)c1cc2c(cn1)ncn2CC(C)(C)C)c1cnc(Nc2ccc(C(F)(F)F)cc2)s1` (centres unmarked) [Example 16]: 100 to 1000 nM.
The value for `Cc1nc2cnc(C(=O)NC(C)c3ncc(Nc4ccc(C(F)(F)F)cc4)s3)cn2c1N` (centres unmarked) [Example 305] was 100 to 1000 nM; that for `CC(NC(=O)c1cc2c(cn1)ncn2CCN)c1cnc(Nc2ccc(C(F)(F)F)cc2)s1` (centres unmarked) [Example 23] was 100 to 1000 nM.
The value for `CC(NC(=O)c1ccc2[nH]ncc2c1)c1ccc(C(=O)Nc2cccc(C(F)(F)F)c2)s1` (centres unmarked) [Example 195] was 1000 to 10000 nM.
On to `C[C@@H](NC(=O)c1cnc2n1CCC(=O)N2)c1ncc(C(=O)Nc2cc(C(F)(F)F)c(Cl)cn2)s1` [Example 173], for which the EC50 is at most 100 nM.
Consider `C[C@@H](NC(=O)c1ccc2[nH]cnc2c1)c1ncc(C(=O)Nc2cc(C(F)(F)F)c(Cl)cn2)s1` [Example 53], for which the EC50 fell in the range of 100 to 1000 nM.
On to `CC(NC(=O)c1cnn2cc(-c3ccc(N4CCOCC4)nc3)ccc12)c1ncc(C(=O)Nc2cc(C(F)(F)F)c(Cl)cn2)s1` (centres unmarked) [Example 323], for which the EC50 was at most 100 nM.
The value for `CC(NC(=O)c1cc2c(cn1)ncn2C)c1cnc(Nc2ccc(C(F)(F)F)cc2N(C)C)s1` (centres unmarked) [Example 275] was 100 to 1000 nM; that for `C[C@@H](NC(=O)c1cc2c(cn1)ncn2C1CN(S(C)(=O)=O)C1)c1cnc(Nc2ccc(C(F)(F)F)cc2)cn1` [Example 345] was at most 100 nM; that for `CC(NC(=O)c1cc2c(cn1)ncn2C)c1cnc(Nc2cccc(C(C)(C)C)c2)s1` (centres unmarked) [Example 257] was at most 100 nM.
For `CC(NC(=O)c1cc2c(cn1)ncn2C)c1cnc(Nc2ccc(S(=O)(=O)C(F)(F)F)cc2)s1` (centres unmarked) [Example 250], the EC50 fell in the range of 100 to 1000 nM.
The value for `CC(NC(=O)c1cnn2cc(-c3cnc(N)nc3)ccc12)c1ncc(C(=O)Nc2cc(C(F)(F)F)c(Cl)cn2)s1` (centres unmarked) [Example 327] was at most 100 nM.
The same measure for `C[C@@H](NC(=O)c1cnc2n1CCCCN2)c1ncc(C(=O)Nc2cc(C(F)(F)F)c(Cl)cn2)s1` [Example 171]: at most 100 nM; for `CNc1ncc(C(=O)N[C@H](C)c2ncc(C(=O)Nc3cc(C(F)(F)F)c(Cl)cn3)s2)s1` [Example 104]: 100 to 1000 nM.
The same measure for `CC(NC(=O)c1cc2c(cn1)ncn2C)c1cnc(Nc2cccc(C(C)(C)C#N)c2)s1` (centres unmarked) [Example 252]: 100 to 1000 nM; for `CC(NC(=O)c1cccc(CN2CCOCC2)c1)c1ncc(C(=O)Nc2cc(C(F)(F)F)c(Cl)cn2)s1` (centres unmarked) [Example 46]: 1000 to 10000 nM; for `C[C@H](NC(=O)c1cc2c(cn1)ncn2C)c1cnc(Nc2ccc(C(F)(F)F)cc2)cn1` (single isomer, unassigned) [Example 36]: 1000 to 10000 nM.
As to `CCn1cnc2cnc(C(=O)NC(C)c3cnc(Nc4ccc(C(F)(F)F)cc4)cn3)cc21` (centres unmarked) [Example 38], the half-maximal effective concentration (EC50) was at most 100 nM.
The same measure for `CC(NC(=O)c1cccc(-n2ccnc2)c1)c1ncc(C(=O)Nc2cc(C(F)(F)F)c(Cl)cn2)s1` (centres unmarked) [Example 48]: 100 to 1000 nM; for `C[C@H](NC(=O)c1cc2c(cn1)ncn2C)c1cnc(Nc2ccc(Cl)c(C(F)(F)F)c2)cn1` (single isomer, unassigned) [Example 237]: 1000 to 10000 nM.
Take `Cc1ncc(C(=O)N[C@H](C)c2ncc(C(=O)Nc3cc(C(F)(F)F)c(Cl)cn3)s2)n1-c1ccccn1` [Example 161]: the EC50 is 100 to 1000 nM.
The value for `CNc1ncc(C(=O)N[C@H](C)c2ncc(C(=O)Nc3cc(C(F)(F)F)c(Cl)cn3)s2)n1C` [Example 160] was 1000 to 10000 nM.
The same measure for `C[C@@H](NC(=O)c1cnc(N)n1C1CC1)c1ncc(C(=O)Nc2cc(C(F)(F)F)c(Cl)cn2)s1` [Example 154]: 100 to 1000 nM; for `CCS(=O)(=O)N1CC(n2cnc3cnc(C(=O)N[C@H](C)c4cnc(Nc5ccc(C(F)(F)F)cc5)cn4)cc32)C1` [Example 342]: at most 100 nM; for `C[C@@H](NC(=O)c1cnc2n1CCNC2)c1ncc(C(=O)Nc2cc(C(F)(F)F)c(Cl)cn2)s1` [Example 315]: 100 to 1000 nM.
In the case of `CCN1CC(n2cnc3cnc(C(=O)NC(C)c4cnc(Nc5cnc(C(C)(C)C)nc5)s4)cc32)C1` (centres unmarked) [Example 288], the EC50 was in the range of 100 to 1000 nM.
The value for `C[C@@H](NC(=O)c1cnc2[nH]ccc2c1)c1ncc(C(=O)Nc2cc(C(F)(F)F)c(Cl)cn2)s1` [Example 81] was at most 100 nM.
Regarding `CC(NC(=O)c1cccc(-c2cccnc2)c1)c1ncc(C(=O)Nc2cc(C(F)(F)F)c(Cl)cn2)s1` (centres unmarked) [Example 47], the EC50 lay within 100 to 1000 nM.
The same measure for `CC(NC(=O)c1cc2c(cn1)ncn2C)c1cnc(Nc2ccc(Cl)c(S(=O)(=O)C(F)(F)F)c2)cn1` (centres unmarked) [Example 269]: at most 100 nM; for `CC(NC(=O)c1cc2c(cn1)ncn2C)c1cnc(Nc2ccc(C3(C)CC3)cc2)s1` (centres unmarked) [Example 277]: 100 to 1000 nM; for `CC(NC(=O)c1cc2c(cn1)ncn2C)c1cnc(Nc2cccc(C(C)(C)C(F)(F)F)c2)s1` (centres unmarked) [Example 278]: at most 100 nM.
Take `C[C@@H](NC(=O)c1cc2c(cn1)ncn2C)c1cnc(Nc2ccc(Cl)c(C(F)(F)F)c2)cn1` (single isomer, unassigned) [Example 236]: the EC50 is at most 100 nM.
The value for `C[C@@H](NC(=O)c1cncn1C)c1ncc(C(=O)Nc2cc(C(F)(F)F)c(Cl)cn2)s1` [Example 141] was 100 to 1000 nM; that for `CC(NC(=O)c1cc2c(cn1)ncn2C1CCN(C)CC1)c1cnc(Nc2ccc(C(F)(F)F)cc2)s1` (centres unmarked) [Example 11] was 100 to 1000 nM.
Take `CC(C)S(=O)(=O)N1CC(n2cnc3cnc(C(=O)N[C@H](C)c4cnc(Nc5ccc(C(F)(F)F)cc5)cn4)cc32)C1` [Example 343]: the EC50 was at most 100 nM.
The value for `C[C@@H](NC(=O)c1cnc2sccn12)c1ncc(C(=O)Nc2cc(C(F)(F)F)c(Cl)cn2)s1` [Example 165] was 100 to 1000 nM.
The value for `CC(NC(=O)c1cn2c(Br)cnc2cn1)c1cnc(Nc2ccc(C(F)(F)F)cc2)s1` (centres unmarked) [Example 297] was at most 100 nM; that for `Cc1nc(C(F)(F)F)ccc1Nc1ncc(C(C)NC(=O)c2cc3c(cn2)ncn3C)s1` (centres unmarked) [Example 259] was 100 to 1000 nM.
Consider `CC(NC(=O)c1cnn2cc(-c3ccncc3)ccc12)c1ncc(C(=O)Nc2cc(C(F)(F)F)c(Cl)cn2)s1` (centres unmarked) [Example 321], for which the EC50 is at most 100 nM.
